Results: US10780042B2, “Cosmetic compositions” (Symrise AG, priority 2015, dated 2020)

Assays:
5-lipoxygenase = biological target: T1, 5-lipoxygenase (Homo sapiens, UniProt P09917); details: described in WO 200 230385 A2 (Henkel); cited from earlier work
T1 sequence (P09917 1-674): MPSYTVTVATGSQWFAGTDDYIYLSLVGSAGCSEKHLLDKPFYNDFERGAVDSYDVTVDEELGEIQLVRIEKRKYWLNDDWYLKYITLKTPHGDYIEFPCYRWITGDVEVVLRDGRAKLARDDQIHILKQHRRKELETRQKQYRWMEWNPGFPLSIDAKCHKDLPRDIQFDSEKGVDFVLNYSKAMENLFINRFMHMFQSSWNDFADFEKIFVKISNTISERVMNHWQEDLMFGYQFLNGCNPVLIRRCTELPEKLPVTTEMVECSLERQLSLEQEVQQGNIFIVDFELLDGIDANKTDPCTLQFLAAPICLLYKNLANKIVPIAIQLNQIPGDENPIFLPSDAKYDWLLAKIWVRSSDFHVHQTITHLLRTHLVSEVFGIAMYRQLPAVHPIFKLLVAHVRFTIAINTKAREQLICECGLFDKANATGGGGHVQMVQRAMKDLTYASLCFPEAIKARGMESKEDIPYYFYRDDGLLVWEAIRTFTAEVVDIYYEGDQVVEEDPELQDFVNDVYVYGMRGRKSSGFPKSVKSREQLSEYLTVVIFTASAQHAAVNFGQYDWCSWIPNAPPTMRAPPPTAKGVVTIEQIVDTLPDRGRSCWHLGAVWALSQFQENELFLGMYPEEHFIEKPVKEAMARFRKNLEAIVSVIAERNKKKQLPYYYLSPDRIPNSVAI

POMC gene expression = assay: Particle induced POMC gene expression in human epidermal keratinocytes (qRT-PCR); assay type: cell-based
Description: (§1) Gene expression was induced by different model particles. […] The details are set out in Table 1:
(§2) Gene expression was analyzed via qRT-PCR.
(§3) Ginger root CO2 extract has been dissolved in DMSO and diluted in medium. […] Gene expression was analyzed via qRT-PCR. […] Table 7 compiles the results for ginger root CO2 extract altered POMC and IL-6 gene expression
(§4) Purple coneflower pressed juice has been dissolved directly in medium. […] Gene expression was analyzed via qRT-PCR. […] Table 8 compiles the results for purple coneflower pressed juice altered POMC and IL-6 gene expression
(§5) Gene expression was analyzed via qRT-PCR. […] Table 9 compiles the results for purple coneflower pressed juice altered POMC and IL-6 gene expression

cyclooxygenase-1 = cyclooxygenase-1 (Homo sapiens, UniProt P23219); details: described in WO 200 230385 A2 (Henkel); cited from earlier work
IL-6 gene expression = assay: Particle induced IL-6 gene expression in human epidermal keratinocytes (qRT-PCR); assay type: cell-based
Description: as §1, §2, §3, §4, §5

AhR = biological target: T2, AhR (Homo sapiens, UniProt P35869); details: stated as known; cited from earlier work
T2 sequence (P35869 11-848): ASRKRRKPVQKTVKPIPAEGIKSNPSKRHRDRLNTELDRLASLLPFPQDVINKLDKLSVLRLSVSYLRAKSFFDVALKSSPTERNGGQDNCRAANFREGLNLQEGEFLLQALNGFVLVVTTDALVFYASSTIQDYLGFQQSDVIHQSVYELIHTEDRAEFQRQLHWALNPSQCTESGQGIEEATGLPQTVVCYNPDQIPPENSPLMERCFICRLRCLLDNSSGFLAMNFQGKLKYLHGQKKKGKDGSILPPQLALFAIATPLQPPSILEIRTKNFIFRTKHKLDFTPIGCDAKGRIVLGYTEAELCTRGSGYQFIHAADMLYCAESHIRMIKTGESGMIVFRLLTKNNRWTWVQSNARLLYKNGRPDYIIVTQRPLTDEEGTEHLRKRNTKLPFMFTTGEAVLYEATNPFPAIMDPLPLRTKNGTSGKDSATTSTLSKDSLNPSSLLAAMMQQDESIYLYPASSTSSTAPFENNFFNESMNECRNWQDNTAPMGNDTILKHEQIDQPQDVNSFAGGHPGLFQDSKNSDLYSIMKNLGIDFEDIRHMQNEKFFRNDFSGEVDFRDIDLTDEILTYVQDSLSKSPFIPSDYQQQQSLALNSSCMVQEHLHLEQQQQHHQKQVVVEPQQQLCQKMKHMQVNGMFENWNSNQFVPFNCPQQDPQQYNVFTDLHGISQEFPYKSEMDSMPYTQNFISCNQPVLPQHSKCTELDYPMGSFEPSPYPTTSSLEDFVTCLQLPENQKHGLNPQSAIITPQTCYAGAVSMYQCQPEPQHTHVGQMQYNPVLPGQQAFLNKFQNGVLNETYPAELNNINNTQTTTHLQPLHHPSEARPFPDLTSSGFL

MMP1 gene expression = assay: Particle induced MMP1 gene expression in human epidermal keratinocytes (qRT-PCR); assay type: cell-based
Description: as §1, §2

CYP1A1 gene expression = assay: Particle induced CYP1A1 gene expression in human epidermal keratinocytes (qRT-PCR); assay type: cell-based; details: for CYP1A1 Induction mean ± SE: 10 μM BDDI
Description: as §1, §2

Chain of cyclooxygenase-1 (P23219 24-599, species assumed): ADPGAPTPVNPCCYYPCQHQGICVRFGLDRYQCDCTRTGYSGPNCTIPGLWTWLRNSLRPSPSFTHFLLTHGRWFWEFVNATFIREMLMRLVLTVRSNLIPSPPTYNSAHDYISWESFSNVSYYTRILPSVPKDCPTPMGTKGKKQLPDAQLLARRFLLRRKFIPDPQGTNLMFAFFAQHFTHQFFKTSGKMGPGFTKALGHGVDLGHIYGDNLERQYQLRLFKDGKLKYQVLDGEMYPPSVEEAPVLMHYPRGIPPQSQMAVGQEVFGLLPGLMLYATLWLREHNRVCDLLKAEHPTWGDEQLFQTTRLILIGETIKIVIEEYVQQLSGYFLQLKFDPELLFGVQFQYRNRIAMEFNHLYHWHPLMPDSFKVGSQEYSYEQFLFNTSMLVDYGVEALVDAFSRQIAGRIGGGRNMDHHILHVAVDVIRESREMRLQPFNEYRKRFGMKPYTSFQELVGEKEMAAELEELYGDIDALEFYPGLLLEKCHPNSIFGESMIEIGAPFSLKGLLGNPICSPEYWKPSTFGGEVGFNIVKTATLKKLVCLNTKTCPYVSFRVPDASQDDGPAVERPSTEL

Row | CYP1A1 Induction mean ± SE (CYP1A1 gene expression; NHEK adult, 6 h, SRM1650 1.5 μg/cm2, untreated = 1, particles alone 2.90) | CYP1A1 Induction mean ± SE (CYP1A1 gene expression; NHEK adult, 6 h, SRM2975 1.5 μg/cm2, untreated = 1, particles alone 1.03) | CYP1A1 Induction mean ± SE (CYP1A1 gene expression; NHEK adult, 24 h, SRM2975 1.5 μg/cm2, untreated = 1, particles alone 4.90) | inhibition of particle induced Cyp1A1 gene expression (in words) (CYP1A1 gene expression; indoor as well as outdoor model particles) | CYP1A1 Induction mean ± SE (CYP1A1 gene expression; indoor particles Huber990 1.5 μg/cm2, 6 h, untreated = 1, particles alone 2.70) | CYP1A1 Induction mean ± SE (CYP1A1 gene expression; indoor particles Huber990 1.5 μg/cm2, 24 h, untreated = 1, particles alone 2.90) | Compound | inhibition of 5-lipoxygenase (in words) (5-lipoxygenase) | inhibition of particle induced POMC gene expression (in words) (POMC gene expression) | inhibition of cyclooxygenase-1 activity (in words) (cyclooxygenase-1) | inhibition of particle induced IL-6 gene expression (in words) (IL-6 gene expression) | upregulation of the AhR by UVB radiation (in words) (AhR) | inhibition of particle induced MMP1 gene expression (in words) (MMP1 gene expression)
1 |  |  |  |  |  |  | CC1(C)CCC[C@]2(C)C3CC(=O)O[C@]3(C)CC[C@@H]12 (stereo partly drawn) [Sclareolide, (3aR,5aS,9aS,9bR)-decahydro-3a,6,6,9a-tetramethyl-naphtha[2,1-b]furan-2(1H)-one] | inhibition | capable to inhibit | inhibition |  |  | 
2 |  |  |  |  |  |  | C=C[C@](C)(O)CC[C@@H]1[C@@]2(C)CCCC(C)(C)[C@@H]2CC[C@@]1(C)O [sclareol, reference compound] | inhibition |  | inhibition |  |  | 
3 | 0.02 ± 0.00 | 0.20 ± 0.00 | 0.01 ± 0.00 | capable to inhibit | 0.05 ± 0.00 | 0.20 ± 0.00 | E/Z-2-benzylindene-5,6-dimethoxy-3,3-dimethylindan-1-one [BDDI] |  | capable to inhibit |  | capable to inhibit | prevent the upregulation | capable to inhibit
